Values quoted from earlier work, collected in US20160000732A1, “ORAL PHARMACEUTICAL COMPOSITIONS OF OSPEMIFENE” (CADILA HEALTHCARE LIMITED, priority 2014, published 2016).

Key:
[1] = classical hormonal tests, Kangas 1990
[2] = experimental models and human volunteers; WO 1996/07402, WO 1997/32574

OCCOc1ccc(/C(=C(/CCCl)c2ccccc2)c2ccccc2)cc1 [Ospemifene, 2-[4-(4-chloro-1,2-diphenylbut-1-enyl)phenoxy]ethanol]
estrogenic and antiestrogenic effects [1]: relatively weak | total and LDL cholesterol levels [2]: decreases
